According to BindingDB's records for doi:10.1021/jm00063a004 (Cnrs-Cercoa, 1993):

Target: Trypsin (Sus scrofa) (UniProt P00761)
Assay: Apparent binding constant against porcine trypsin

Sequence of Trypsin (Sus scrofa) (P00761 whole entry, looked up): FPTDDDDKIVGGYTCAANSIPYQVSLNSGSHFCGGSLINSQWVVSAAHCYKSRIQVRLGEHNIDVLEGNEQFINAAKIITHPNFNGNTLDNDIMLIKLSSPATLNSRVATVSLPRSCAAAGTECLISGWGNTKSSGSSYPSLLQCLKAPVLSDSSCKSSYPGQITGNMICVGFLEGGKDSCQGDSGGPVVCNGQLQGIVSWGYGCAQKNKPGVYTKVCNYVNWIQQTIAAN

Ki: 20 µM
SMILES: N=C(N)NCCCC1NC(=O)CNC(=O)c2cc(ccc2CBr)NC1=O (stereo unspecified) [N-[3-(11-Bromomethyl-3,6,9-trioxo-2,5,8-triaza-bicyclo[8.3.1]tetradeca-1(13),10(14),11-trien-4-yl)-propyl]-guanidine]
